Experimental findings from publication PMC9911388, “Secondary metabolic profiling of Serratia marcescens NP10 reveals new stephensiolides and glucosamine derivatives with bacterial membrane activity” (Scientific Reports, 2023) are described below.

Series [1] deals with S. aureus RN4220. As to the kind of experiment: Resazurin broth microdilution assay (resazurin vitality assay). The format is cell-based, Staphylococcus aureus. The settings on record: for MIC: RP-HPLC purified fractions, MIC = concentration giving ≥ 90% inhibition of growth by fluorometric reading, range 9.8 to 625 µg/mL, 1 h at 37 °C, then resazurin 1.5 h, triplicate, independent duplicate experiments; for IC50: derived from sigmoidal dose-response curves (GraphPad Prism, nonlinear regression, best-fit). As for the experimental part:
The RP-HPLC purified fractions were tested for antibacterial activity using a broth microdilution assay coupled with the metabolic dye, resazurin[20] against S. aureus RN4220. The principle of the assay was based on the rate of reduction of the resazurin dye to resorufin, with survival of the cell equated to an increased conversion of this dye, while a decreased rate of conversion indicates impairment of cellular metabolism and was thus equated to cell death. Briefly, the test strain was inoculated into 10 mL of cation adjusted-Mueller Hinton broth (Sigma-Aldrich) (CA-MHB containing […]) and incubated at 37 °C for 18 to 24 h. Following overnight incubation, the culture was diluted into the respective media and grown to mid-log phase to obtain an optical density (OD) at 0.3 (± 1.4 × 10^8 cells mL^-1) determined at 600 nm.
The RP-HPLC fractions were then diluted in MeCN to a concentration of […]. Fifty microlitres of each fraction was dispensed into the first row of the respective wells of a clear Greiner CELLSTAR® 96-well culture plate (Merck, Johannesburg, South Africa) containing 50 μL of analytical quality H2O, in triplicate. A microdilution was performed in the 96-well culture in 50 μL of sterile analytical quality H2O in each well and the plate was dried at 50 °C for 18 to 24 h to remove the solvent. Thereafter, 10 μL of target cells in mid-log phase at the adjusted OD was dispensed into each well, resulting in a final antimicrobial concentration range of each fraction from 9.8 to 625 µg/mL and incubated for 1 h at 37 °C. After 1 h incubation, 90 μL of phosphate buffered saline (PBS) was added to each well, followed by 10 μL of resazurin [prepared to a stock solution 0.3 mg/mL in PBS; Sigma-Aldrich (St Louis, MO, USA)]. The plate was then incubated at 37 °C for 1.5 h. Finally, fluorometric readings of the plate were conducted using a Tecan Spark 10 M Multimode Microplate Reader at 560 nm excitation wavelength and 590 nm emission wavelength. Sterile broth and the OD adjusted inoculum were included in the assay as a positive control, while sterile broth was included as a negative control. Tests were performed in triplicate, with independent duplicate experiments.
The percentage inhibition was calculated as described by van Rensburg et al.[20]. […] The MIC vs retention time was plotted using Graphpad Prism version 3.01 for Windows [GraphPad Software, San Diego, USA (www.graphpad.com)].

The nature of series [2]: UPLC C18 retention time used as measure of hydrophobicity. Type of series: physicochemical. The settings on record: chromatographic; UPLC-MS of NP10 crude extract; C18 Acquity UPLC HSS T3 1.8 μm, 2.1 × 150 mm; H2O/MeCN with 0.1% formic acid; 40 to 95% B from 0.5 to 15 min; 0.300 mL/min. As for the experimental part: The pooled NP10 crude extract was analysed using UPLC-MS^E at the Liquid Chromatography Mass Spectrometry (LCMS) unit at the Central Analytical Facility (CAF, SU) as outlined in Clements-Decker et al.[4]. Briefly, the UPLC-MS^E was conducted on a Waters Synapt G2 high resolution mass spectrometer linked to an Acquity UPLC™ (Waters Corporation, Milford, USA). Three microlitres (1.00 mg/mL) was separated on an UPLC C18 reverse-phase analytical column (Acquity UPLC® HSS T3, 1.8 μm particle size, 2.1 × 150 mm, Waters Corporation, Dublin, Ireland). The UPLC was conducted with analytical quality H2O containing 0.1% (v/v) formic acid as solution A and MeCN containing 0.1% (v/v) formic acid as solution B at a flow rate of 0.300 mL/min as follows: 60% A from 0 to 0.5 min for loading, linear gradient from 40 to 95% (B) from 0.5 to 15 min and 95 to 40% (B) from 15 to 18 min. The positive mode ESI conditions included: 2.5 kV capillary voltage, 15 V cone voltage, 120 °C source temperature, desolvation temperature of 275 °C, 50 L/h cone gas flow, 650 L/h desolvation gas flow, and m/z range of 200 to 2000 in centroid mode.

Series [3] has as its system S. aureus RN4220. The experiment in a line: Membrane depolarisation assay: DiSC3(5). The format is cell-based, Staphylococcus aureus. Particulars: for Time to membrane depolarisation / Time to two-fold increase in DiSC3(5) fluorescent signal: at MIC; for Time to membrane depolarisation: DiSC3(5) assay; for Time to two-fold increase in DiSC3(5) fluorescent signal: from the initial reading at 120 s; for DiSC3(5) fluorescence (membrane depolarisation): ½MIC, MIC and two-fold MIC, DiSC3(5) 0.4 µM, read over 12 min. As for the experimental part:
To gain insight into whether stephensiolides and glucosamine derivatives cause membrane depolarisation of S. aureus, membrane potential was assessed by monitoring the release of the voltage-sensitive dye 3,3′-dipropylthiadicarbocyanine iodide [DiSC3(5)][25],[26].
The membrane depolarisation capabilities (ability to disrupt membrane potential) of GluA, GluC, StpK and StpU against S. aureus RN4220 was determined using the voltage-sensitive fluorescent probe, 3,3'-dipropylthiadicarbocyanine iodide [DiSC3(5)][25],[39]. Due to the cationic charge and hydrophobic nature of DiSC3(5), the fluorescent dye can penetrate and accumulate in lipid bilayers until Nernstian equilibrium is reached, resulting in the quenching of the fluorescent signal. Once depolarisation occurs (i.e., changes in ion permeability and dissipating transmembrane potential), the dye is rapidly released into the medium and subsequently results in the dequenching of the fluorescent signal. Briefly, black 96 well plates were prepared with the selected four compounds at two-fold MIC, MIC and ½MIC as described in the “Resazurin Broth Microdilution Assay” section. The S. aureus RN4220 strain was prepared in CA-MHB and grown to mid-log phase to obtain an OD600 of 0.5–0.6. Cells were harvested by centrifugation at 3000 rpm for 10 min and resuspended in HEPES buffer (5 mM, pH 7.4, containing 20 mM glucose; 100 mM KCl) to OD600 of 0.05. Thereafter, DiSC3(5) (stock concentration of 400 µM in 100% DMSO) was added to the cell suspension to a final concentration of 0.4 µM and cells were incubated in the dark at room temperature for 60 min. Cell suspensions (100 µL) were then dispensed into the wells of the 96 well plate containing the compounds. Sterile broth and the OD adjusted inoculum with DiSC3(5) were included as a non-fluorescent control, sterile broth with DiSC3(5) was included as a sterility control, and melittin was included as membrane depolarisation control. Fluorometric readings of the plate were conducted in 2 min intervals over 12 min (readings began 120 s after cells were added to the compounds) using a Tecan Spark at 622 nm excitation wavelength and 670 nm emission wavelength.

For series [4], the system named is S. aureus RN4220. The experiment in a line: Membrane permeability assay: propidium iodide uptake. Type of series: cell-based, Staphylococcus aureus. The settings on record: PI 10 µg/mL; for PI fluorescence (membrane permeabilisation): ½MIC and MIC, read over 60 min; for Time to two-fold increase in PI fluorescence from the initial reading: at MIC. As for the experimental part: To gain insight into whether stephensiolides and glucosamine derivatives cause increased membrane permeability by forming lesions within the cell membrane of S. aureus, membrane permeability was assessed by monitoring the influx of propidium iodide (PI) and subsequent staining of nucleic acids within the cell, resulting in a fluorescent signal[23],[24]. Fluorescence was measured for 1 h at the MIC and ½MIC of compounds 12, 14, 22 and 26 (Fig. 5a and b).
The membrane permeability capabilities of GluA, GluC, StpK and StpU on S. aureus RN4220 was determined using propidium iodide (PI) (Sigma-Aldrich; St. Louis, MO, USA)[23]. This fluorescent dye can only enter bacterial cells through membrane lesions that are big enough to allow the large molecule (PI has a molecular mass of 668.087 g/mol) to pass through, thus providing an indication of changes in membrane permeability. Briefly, black Greiner CELLSTAR 96-well plates (Merck, Johannesburg, South Africa) were prepared with the selected four compounds at MIC and ½MIC and dried as described in the “Resazurin Broth Microdilution Assay” section. The S. aureus RN4220 strain was prepared in CA-MHB and grown to mid-log phase (OD600 of 0.5–0.6) and diluted to OD600 of 0.3. Propidium iodide (stock concentration of 1 mg/mL in water) was added to the cell suspension to a final concentration of 10 µg/mL and cells were incubated in the dark at room temperature for 10 min. Thereafter, 100 µL of OD adjusted PI cells in mid-log phase was dispensed into each well. Sterile broth and the OD adjusted inoculum with PI were included as a positive control, while sterile broth with PI was included as a negative control. Melittin served as a positive lytic control. Fluorometric readings of the plate were conducted in 2 min intervals over 60 min (readings began 120 s after cells were added to the compounds) using a Tecan Spark at 535 nm excitation wavelength and 617 nm emission wavelength.

As for Stephensiolide T [Compound 11], the values for the MIC in series [1] and in series [1] (listed as StpT) were not below 300 µg/mL and “no activity observed”, respectively. Besides, in series [2], the “Rt (retention time, hydrophobicity)” value worked out at 8.92 min.
Take melittin [reference compound]: in series [3] (depolarisation control), the “Time to rapid depolarisation (control)” value is given as not above 240 s. In series [4], the “PI fluorescence (membrane permeabilisation)” value is recorded as “expected increase in fluorescence signal”.
Regarding Stephensiolide V [Compound 13], the “Rt (retention time, hydrophobicity)” value in series [2] is 9.74 min.
As for Stephensiolide X [Compound 16], the “Rt (retention time, hydrophobicity)” value in series [2] turned out to be 10.87 min.
The same measure, in the same setting: the result for Stephensiolide Y [Compound 17] reads 11.88 min; that for Stephensiolide M [Compound 2], 6.45 min.
Still for that read-out and setting: the result for Stephensiolide L [Compound 1] reads 5.46 min.
For Stephensiolide U [Compound 12], in series [3], the “Time to membrane depolarisation” value was not above 8 min, the “Time to two-fold increase in DiSC3(5) fluorescent signal” value worked out at 480 s and the “DiSC3(5) fluorescence (membrane depolarisation)” value was “induced an increase in DiSC3(5) fluorescence at all concentrations tested”. In series [1], this substance displayed an MIC of 78 µg/mL and an IC50 of 53 µg/mL. Also, in series [2], the “Rt (retention time, hydrophobicity)” value is given as 9.57 min. Further, in series [4], the “Time to two-fold increase in PI fluorescence from the initial reading” value is not above 28 min and the “PI fluorescence (membrane permeabilisation)” value is listed as “induced an increase in PI fluorescence over time”.
Turning to Stephensiolide P [Compound 7], in series [2], the “Rt (retention time, hydrophobicity)” value was found to be 7.00 min.
Take Stephensiolide N [Compound 3]: the MIC in series [1] is given as not below 300 µg/mL. The “Rt (retention time, hydrophobicity)” value in series [2] is 7.17 min.
Take Stephensiolide O [Compound 6]: the “Rt (retention time, hydrophobicity)” value in series [2] was 6.28 min.
In the case of Stephensiolide K [Compound 14], in series [3], the “Time to membrane depolarisation” value is given as not above 12 min, the “Time to two-fold increase in DiSC3(5) fluorescent signal” value came to 720 s and the “DiSC3(5) fluorescence (membrane depolarisation)” value is listed as “induced an increase in DiSC3(5) fluorescence at all concentrations tested”. In series [1], this substance yielded an MIC of 39 µg/mL and an IC50 of 25 µg/mL. Also, the “Rt (retention time, hydrophobicity)” value in series [2] worked out at 10.37 min. Moreover, in series [4], the “Time to two-fold increase in PI fluorescence from the initial reading” value was not above 36 min and the “PI fluorescence (membrane permeabilisation)” value is recorded as “induced an increase in PI fluorescence over time”.
On to Stephensiolide S [Compound 10], for which, in series [2], the “Rt (retention time, hydrophobicity)” value is 8.01 min.
As to Stephensiolide R [Compound 9], the MIC in series [1] is listed as not below 300 µg/mL. The “Rt (retention time, hydrophobicity)” value in series [2] amounted to 8.79 min.
In the case of Stephensiolide W [Compound 15], in series [2], the “Rt (retention time, hydrophobicity)” value is reported as 10.31 min.
Stephensiolide Q [Compound 8]: the MIC in series [1] was not below 300 µg/mL. Also, the “Rt (retention time, hydrophobicity)” value in series [2] worked out at 8.09 min.
